Experiments:
[1] = test system: serotonin reuptake; conditions: cited from earlier work
[2] = Treatment switch from fluoxetine to an alternative antidepressant (proxy for therapeutic failure) by CYP2D6 phenotype; format: in vivo, human; conditions: adult patients; for Switch to alternative antidepressant, Frequency (%): within one year after last fluoxetine measurement
Description: Consequently, an antidepressant switch was used as a proxy marker for therapeutic failure, regardless of the cause.
IBM SPSS Statistics version 28.0.1.1 (SPSS Inc, Chicago, IL) was used for statistical analysis and graphical presentations. Continuous variables were reported as median (range). The associations between CYP2D6 phenotype and pharmacokinetic measures such as absolute concentrations, C/D ratios and metabolic ratios were examined using Kruskal–Wallis test followed by Bonferroni-corrected Dunn’s test using CYP2D6 NMs as reference group. […] A p value below 0.05 was considered statistically significant.

[3] = test system: CYP2D6; conditions: cited from earlier work
[4] = cited from earlier work
[5] = cited from earlier work; remark: listed apart in the source

## NCC[C@H](Oc1ccc(C(F)(F)F)cc1)c1ccccc1 [S-norfluoxetine]
[1]
  Potency as SSRI relative to R-norfluoxetine: approximately 20 times

## CNCCC(Oc1ccc(C(F)(F)F)cc1)c1ccccc1 (stereo not drawn) [fluoxetine]
[2]; CYP2D6 IMs (n = 347)
  Switch to alternative antidepressant where genotyping was not performed within the switch period, Frequency (%): 6.3%
  Switch to alternative antidepressant, Frequency (%): 8.6%
[2]; CYP2D6 NMs (n = 587)
  Switch to alternative antidepressant where genotyping was not performed within the switch period, Frequency (%): 6.6%
  Switch to alternative antidepressant, Frequency (%): 8.3%
[2]; CYP2D6 PMs (n = 68)
  Switch to alternative antidepressant where genotyping was not performed within the switch period, Frequency (%): 10.3%
  Switch to alternative antidepressant, Frequency (%): 19.1%
[2]; CYP2D6 UMs (n = 25)
  Switch to alternative antidepressant where genotyping was not performed within the switch period, Frequency (%): 12.0%
  Switch to alternative antidepressant, Frequency (%): 24.0%
[2]; Total (n = 1027)
  Switch to alternative antidepressant where genotyping was not performed within the switch period, Frequency (%): 6.9%
  Switch to alternative antidepressant, Frequency (%): 9.5%
[3]
  Type of CYP2D6 inhibition: competitive and reversible inhibitors
[4]
  Elimination half-life: one to four
[5]
  Distribution to the brain: more distributed to the brain than norfluoxetine

## NCCC(Oc1ccc(C(F)(F)F)cc1)c1ccccc1 (stereo not drawn) [norfluoxetine]
[3]
  Type of CYP2D6 inhibition: competitive and reversible inhibitors

Source: PMC12511196 (European Journal of Clinical Pharmacology, 2025)
